We go through two molecules from US9988341B2, “Bacterial topoisomerase inhibitors and use thereof” (THE FLORIDA INTERNATIONAL UNIVERSITY BOARD OF TRUSTEES, priority 2016, dated 2018).

Assay [1] has as its system M. smegmatis mc2 155/pTA-M+. Nature of the assay: microbe, parasite or virus in culture. Format: cell-based. The conditions noted are these: Mycolicibacterium smegmatis, MC2155, read-out: MIC, M. smegmatis mc2 155/pTA-M+.
Another assay has as its system M. smegmatis. Nature of the assay: M. smegmatis loss of viability (viable colony counts). Format: cell-based.

Values after ≈ are worked out from the molar mass of the structure shown.

For the molecule `CCCC[C@@H](CN[C@H](CN)CCCCNC)NCc1cccc2ccccc12` [Compound 2471-12, (S)—N6-methyl-N2-((S)-2-(naphthalen-1-ylmethylamino)hexyl)hexane-1,2,6-triamine], the MIC in assay [1] is 50 µM (≈ 19.2 µg/mL). Moreover, the “Time course of loss of viable colony counts, MtbTopI overexpression” value in the assay on M. smegmatis is “reduction of cell killing”.

For the molecule `CCCC[C@@H](CN[C@@H](CN)CCCCNC)NCc1cccc2ccccc12` [Compound 2471-36], in assay [1], the MIC was found to be 50 µM (≈ 19.2 µg/mL).
